Laboratory results as given in patent publication US9233995B2, “Quinazoline derivatives and quinazoline complex protein kinase inhibitor for inhibiting multiplication of tumor cells and preparation method thereof” (INSTITUTE OF CHEMISTRY, CHINESE ACADEMY OF SCIENCES, priority 2010, dated 2016).
Where two headings read alike, the source gives them in different places.

Assays:
[1] = system: human breast cancer cell line (sensitive) MCF-7/S + EGF; experiment: Cytotoxicity experiment under the condition of additional EGF, SRB method; format: cell-based
Method: Human breast cancer cell line (sensitive) MCF-7/S and human non-small cell lung cancer cell line A549 are cultured in HAM′S/F-12 medium (HyClone, USA) containing 10 wt % fetal bovine serum (FBS, Hyclone, USA), and 100 ng/ml epidermal growth factor (EGF, Sigma, USA) is added to this medium. Cells described above were purchased from Cell Resource Center, Shanghai Institute for Biological Science, CAS, they are placed in a CO2 incubator and used for the experiment 3-5 days later.
(§1) Wherein, for experiment on compound cytotoxicity assay by sulforhodamine B (SRB) method: Cells in the logarithmic growth phase are collected and inoculated at 96-well plates (6500 cells/well/100 ul, RPMI1640 containing 100 ng/ml of EGF). After incubation for 24 h, compounds at gradient concentrations (200, 100, 50, 25, 12.5, 6.25, 1 (μM/L)) are added. The same volume of RPMI1640 containing 100 ng/ml of EGF is used as control group of the experiment; the blank group is only culture medium without cell. Three parallel wells are set up for each concentration group. After incubation is continued for 48 h, the cell survival rate is measured by SRB method. 50 μl 10% trichloroacetic acid (TCA) pre-cooled (4° C.) is added to each well, it is fixed for 1 hour at 4° C., washed with water for five times, and completely dried, and then 100 μl of SRB solution (Sigma, USA) at concentration of 0.4% by weight is added, and staining is performed at 37° C. in the dark for 30 min. Wash with acetic acid at a concentration of 1% by weight for 4-5 times, dry in the air, add 200 μl of Tris solution (10 mM, pH 10.5), after sufficiently dissolved, the absorbance (absorption wavelength is 570 nm) is measured in microplate reader.
(§2) The growth inhibition rate (IR) is calculated according to the following formula: IR (%)=[1−(experiment group A value−blank group A value)/(control group A value−blank group A value)]×100%, and the IC50 value is calculated using Origin 6.0 software.

[2] = system: keratinocyte Colo-16; experiment: Cytotoxicity experiment, SRB method, tumor cell proliferation; format: cell-based; settings: read-out: IC50 (μmol/L) Keratinocyte Colo-16
Method: (§3) Human breast cancer cell line (drug-resistant) MCF-7/A, human breast cancer cell line (sensitive) MCF-7/S, prostate cancer cell PC-3, keratinocyte Colo-16, human non-small cell lung cancer cell line A549 and etc. are cultured in RPMI1640 medium (Invitrogen, USA) containing 10 wt % fetal bovine serum (FBS, Hyclone, USA), and epidermal growth factor (EGF) at a concentration of 100 ng/ml is added to stimulate growth. After 2-3 days, cells in logarithmic growth phase are collected, and inoculated at 96 well plates (6500 cells/well/100 ul, RPMI1640 containing 100 ng/mL EGF) for 24 h, and then compound at gradient concentrations (200, 100, 50, 25, 12.5, 6.25, 1 μM/L) are added. The same volume of RPMI1640 containing 1 wt % of dimethyl sulfoxide (DMSO) is used as control group of the experiment; the blank group is only culture medium without cell. Three parallel wells are set up for each concentration group. After incubation is continued for 48 h, the cell survival rate is measured by SRB method. Results are shown in Table 2 and Table 3, respectively.
as §1, §2

[3] = system: Human breast cancer cell line (drug-resistant) MCF-7/A; experiment: as above; format: cell-based; settings: 48 h, read-out: IC50 (umol/L) Breast cancer cell (drug-resistant) MCF-7/A
Method: as §3, §1, §2

[4] = system: prostate cancer cell PC-3; experiment: as above; format: cell-based; settings: read-out: IC50 (μmol/L) Prostate cancer cell PC-3
Method: as §3, §1, §2

[5] = system: human breast cancer cell line (sensitive) MCF-7/S; experiment: as above; format: cell-based; settings: 48 h, read-out: IC50 (umol/L) Breast cancer cell (sensitive) MCF-7/S
Method: as §3, §1, §2

[6] = Stability (physicochemical properties, Table 1); settings: for Stability (photostability): light
[7] = biological target: T1, EGFR (Epidermal Growth Factor Receptor) (Homo sapiens, UniProt P00533); experiment: Enzyme-linked immunosorbent assay (ELISA), kinase inhibitory activity (phosphorylation of PTP1B(Tyr66) biotinylated peptide substrate); format: biochemical; settings: average of two independent parallel experiments
T1 construct: purchased CST
Source text: Protein kinase assay kit: PTP1B(Tyr66) Biotinylated Peptide from CST company is used as a substrate of kinase EGFR (Epidermal Growth Factor Receptor).

[8] = system: human non-small cell lung cancer cell line A549; experiment: Cytotoxicity experiment, SRB method, tumor cell proliferation; format: cell-based; settings: A549, 48 h, read-out: IC50 (μmol/L) Non-small cell lung cancer cell A549
Method: as §3, §1, §2

[9] = Solubility (physicochemical properties, Table 1); settings: room temperature, atmospheric pressure
[10] = MCF-7/S with additional EGF 100 ng/ml, 48 h, SRB, read-out: IC50 (umol/L) Breast cancer cell (sensitive) MCF-7/S + EGF
[11] = Homo sapiens, MCF7S, MCF-7/S with additional EGF 100 ng/ml, 48 h, SRB, read-out: IC50 (umol/L) Breast cancer cell (sensitive) MCF-7/S + EGF
[12] = Keratinocyte, Colo-16, 48 h, SRB

T1 sequence (P00533 25-1210): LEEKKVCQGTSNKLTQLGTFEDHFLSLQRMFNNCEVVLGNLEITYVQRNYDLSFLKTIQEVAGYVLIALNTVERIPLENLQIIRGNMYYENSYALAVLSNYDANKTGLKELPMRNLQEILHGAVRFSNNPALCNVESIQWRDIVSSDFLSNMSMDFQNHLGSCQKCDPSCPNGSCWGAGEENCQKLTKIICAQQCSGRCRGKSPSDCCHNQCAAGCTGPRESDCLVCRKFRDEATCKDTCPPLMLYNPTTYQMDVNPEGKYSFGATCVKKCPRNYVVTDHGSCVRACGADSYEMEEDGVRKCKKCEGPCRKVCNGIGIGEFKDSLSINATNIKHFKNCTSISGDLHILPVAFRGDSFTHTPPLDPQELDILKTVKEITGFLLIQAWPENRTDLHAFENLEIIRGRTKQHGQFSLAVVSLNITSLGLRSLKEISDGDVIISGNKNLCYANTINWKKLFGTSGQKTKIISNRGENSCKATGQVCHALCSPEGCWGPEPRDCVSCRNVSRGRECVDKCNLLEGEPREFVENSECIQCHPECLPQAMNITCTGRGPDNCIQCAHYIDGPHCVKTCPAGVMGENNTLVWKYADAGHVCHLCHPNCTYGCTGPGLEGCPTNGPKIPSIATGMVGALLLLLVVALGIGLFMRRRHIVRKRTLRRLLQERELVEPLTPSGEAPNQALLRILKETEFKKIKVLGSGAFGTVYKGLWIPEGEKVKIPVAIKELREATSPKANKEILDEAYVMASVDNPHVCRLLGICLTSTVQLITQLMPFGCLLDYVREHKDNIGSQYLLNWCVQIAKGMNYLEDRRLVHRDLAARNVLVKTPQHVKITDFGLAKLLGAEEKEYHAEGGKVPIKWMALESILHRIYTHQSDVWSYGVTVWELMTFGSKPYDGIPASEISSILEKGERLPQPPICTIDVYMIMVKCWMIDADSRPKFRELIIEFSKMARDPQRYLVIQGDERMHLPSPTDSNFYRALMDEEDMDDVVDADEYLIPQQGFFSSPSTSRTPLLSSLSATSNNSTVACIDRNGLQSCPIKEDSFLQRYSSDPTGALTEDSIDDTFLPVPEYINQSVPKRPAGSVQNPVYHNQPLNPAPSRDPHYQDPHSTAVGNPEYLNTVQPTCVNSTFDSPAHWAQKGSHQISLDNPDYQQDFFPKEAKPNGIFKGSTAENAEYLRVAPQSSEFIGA

Row | SMILES | IC50 [1, 10] | IC50 ([2]; Colo-16, 48 h, SRB) | IC50 [3] | IC50 ([4]; PC-3, 48 h, SRB) | IC50 [5] | Stability (in air) [6] | Stability (photostability) [6] | IC50 [7] | IC50 [8] | Solubility in DMSO [9] | Solubility in methanol and ethanol [9] | Solubility in water [9] | IC50 [1, 11] | IC50 ([8]; Homo sapiens) | IC50 ([3]; Homo sapiens, MCF7a) | IC50 ([5]; Homo sapiens, MCF7S) | IC50 [2, 12] | other results
1 | Cl.[Cl-].[Cl-].[Cl-].[Ru+3].c1c[nH]cn1.c1c[nH]cn1 [NAMI-A, reference compound] | > 100 µmol/L | > 100 µmol/L | > 100 µmol/L | > 100 µmol/L | > 100 µmol/L | – | – | – | – | – | – | – | – | – | – | – | – | –
2 | COc1cc2ncnc(Nc3ccc(F)c(Cl)c3)c2cc1OCCC[N]1CC[NH][Ru+]1([Cl])[c]1ccccc1.F[P-](F)(F)(F)(F)F (stereo not drawn) [ZW2005] | 17.4 ± 1.09 µmol/L | 39.8 ± 4.85 µmol/L | > 100 µmol/L | 38.3 ± 3.56 µmol/L | > 100 µmol/L | Stable in air, | photostable | 0.174 µM | 45.1 ± 2.34 µmol/L | – | – | – | – | – | – | – | – | –
3 | COc1cc2ncnc(Nc3ccc(F)c(Cl)c3)c2cc1OCCC[N]1CC[NH][Ru+]1([Cl])[c]1cc(C(C)C)ccc1C.F[P-](F)(F)(F)(F)F (stereo not drawn) [ZW2004] | 33.9 ± 1.39 µmol/L | 58.2 ± 1.49 µmol/L | > 100 µmol/L | 79.9 ± 7.44 µmol/L | 86.8 ± 6.66 µmol/L | Stable in air, | photostable | 0.106 µM | – | Highly soluble in DMSO | soluble in water, soluble in methanol | slightly | – | – | – | – | – | IC50 ([1]; MCF-7/S+EGF, read-out: IC50 under the test condition of MCF-7/S+EGF inhibiting the proliferation of tumor cells): 33.9 µmol/L; IC50 ([1]; MCF-7/S+EGF, read-out: IC50 under the test conditions of MCF-7/S+EGF inhibiting tumor cell proliferation): 33.9 µmol/L
4 | COc1cc2ncnc(Nc3ccc(F)c(Cl)c3)c2cc1OCCn1ccnc1 [JLY1002] | – | – | – | – | – | Stable in air, | photostable | – | – | Highly soluble in DMSO | soluble in water, soluble in methanol | slightly | > 100 µmol/L | 48.2 ± 0.51 µmol/L | > 100 µmol/L | > 100 µmol/L | – | IC50 ([2]; Keratinocyte, 48 h): > 100 µmol/L; IC50 ([4]; 48 h): > 100 µmol/L
5 | COc1cc2ncnc(Nc3ccc(F)c(Cl)c3)c2cc1OCCCNCCN [ZW1002, 6-(3-(2-aminoethylamino)propoxy)-4-(3-Chloro-4-fluoro-phenylamino)-7-methoxy quinazoline] | – | – | – | 13.6 ± 0.85 µmol/L | – | Stable in air, | photostable | 0.0072 µM | – | Highly soluble in DMSO | soluble in water, soluble in methanol | slightly | 15.9 ± 1.15 µmol/L | 57.4 ± 1.98 µmol/L | > 100 µmol/L | 16.4 ± 0.62 µmol/L | 14.5 ± 0.37 µmol/L | –
6 | COc1cc2ncnc(Nc3ccc(F)c(Cl)c3)c2cc1OCC[N]1CC[NH][Ru+]1([Cl])[c]1cc(C(C)C)ccc1C.F[P-](F)(F)(F)(F)F (stereo not drawn) [ZW2001] | 56.1 ± 2.66 µmol/L | 42.8 ± 2.46 µmol/L | > 100 µmol/L | > 100 µmol/L | > 100 µmol/L | Stable in air, | photostable | 0.081 µM | > 100 µmol/L | Highly soluble in DMSO | soluble in water, soluble in methanol | slightly | – | – | – | – | – | –
7 | COc1cc2ncnc(Nc3ccc(F)c(Cl)c3)c2cc1OCCC[N]1CC[NH][Ru+]1([Cl])[c]1cccc(-c2ccccc2)c1.F[P-](F)(F)(F)(F)F (stereo not drawn) [ZW2006] | 21.7 ± 7.44 µmol/L | 55.8 ± 1.55 µmol/L | > 100 µmol/L | 43.8 ± 3.9 µmol/L | 48.8 ± 7.82 µmol/L | Stable in air, | photostable | 0.0762 µM | > 100 µmol/L | Highly soluble in DMSO | soluble in water, soluble in methanol | slightly | – | – | – | – | – | –
8 | COc1cc2ncnc(Nc3ccc(F)c(Cl)c3)c2cc1OCC[N]1CC[NH][Ru+]1([Cl])[c]1ccccc1.F[P-](F)(F)(F)(F)F (stereo not drawn) [ZW2002] | > 100 µmol/L | 42.1 ± 2.55 µmol/L | > 100 µmol/L | > 100 µmol/L | > 100 µmol/L | Stable in air, | photostable | 0.0938 µM | > 100 µmol/L | – | – | – | – | – | – | – | – | –
9 | COc1cc2ncnc(Nc3ccc(F)c(Cl)c3)c2cc1OCC[N]1CC[NH][Ru+]1([Cl])[c]1cccc(-c2ccccc2)c1.F[P-](F)(F)(F)(F)F (stereo not drawn) [ZW2003] | 28.7 ± 8.75 µmol/L | 54.2 ± 4.98 µmol/L | > 100 µmol/L | 81.3 ± 6.94 µmol/L | 79.1 ± 11.6 µmol/L | Stable in air, | photostable | 0.126 µM | > 100 µmol/L | Highly soluble in DMSO | soluble in water, soluble in methanol | slightly | – | – | – | – | – | –
10 | Cc1ccc(C(C)C)cc1.F[P-](F)(F)(F)(F)F.[Cl][Ru-]1[NH2+]CC[NH2+]1 [Pcy-Ru, reference compound] | 21.8 ± 1.73 µmol/L | 14.3 ± 1.5 µmol/L | > 100 µmol/L | > 100 µmol/L | 13 ± 3.37 µmol/L | – | – | – | 17.3 ± 0.76 µmol/L | – | – | – | – | – | – | – | – | –
11 | COc1cc2ncnc(Nc3ccc(F)c(Cl)c3)c2cc1OC [LQ1001, reference compound] | – | – | – | > 100 µmol/L | – | Stable in air, | photostable | – | – | Highly soluble in DMSO | soluble in water, soluble in methanol | slightly | 53.3 ± 3.12 µmol/L | > 100 µmol/L | > 100 µmol/L | > 100 µmol/L | 88.2 ± 3.98 µmol/L | –
12 | COc1cc2ncnc(Nc3ccc(F)c(Cl)c3)c2cc1OCCNCCN [ZW1001, 6-(2-(2-aminoethylamino)ethoxy)-4-(3-Chloro-4-fluoro-phenylamino)-7-methoxy quinazoline] | – | – | – | 38.4 ± 2.36 µmol/L | – | Stable in air, | photostable | 0.0046 µM | – | Highly soluble in DMSO | soluble in water, soluble in methanol | slightly | 36.3 ± 5.77 µmol/L | 51 ± 1.02 µmol/L | > 100 µmol/L | 38.34 ± 0.1 µmol/L | > 100 µmol/L | –
13 | CC(=O)O[C@H]1C(=O)[C@@]2(C)[C@H]([C@H](OC(=O)c3ccccc3)[C@]3(O)C[C@H](OC(=O)[C@H](O)[C@@H](NC(=O)c4ccccc4)c4ccccc4)C(C)=C1C3(C)C)[C@]1(OC(C)=O)CO[C@@H]1C[C@@H]2O [Taxol, reference compound] | – | – | – | 0.74 ± 0.18 µmol/L | – | – | – | – | – | – | – | – | 0.029 µmol/L | 4.07 ± 1.63 µmol/L | 0.44 ± 0.5 µmol/L | – | 1.06 ± 0.31 µmol/L | –
